The values below come from US9062059B2, “Pyrimidine PDE10 inhibitors” (Merck Sharp & Dohme Corp., priority 2011, dated 2015).

This assay concerns the target human PDE10A2 (Homo sapiens (Human), UniProt Q9Y233). The assay can be described thus: PDE10 fluorescence polarization (IMAP FP) inhibition assay. It counts as biochemical. The settings on record: read-out: PDE10A Ki. As for the experimental part: The activity of the compounds in accordance with the present invention as PDE10 inhibitors may be readily determined without undue experimentation using a fluorescence polarization (FP) methodology that is well known in the art (Huang, W., et al., J. Biomol Screen, 2002, 7: 215).
In a typical experiment the PDE10 inhibitory activity of the compounds of the present invention was determined in accordance with the following experimental method. PDE10A2 was amplified from human fetal brain cDNA (Clontech, Mountain View, Calif.) using a forward primer corresponding to nucleotides 56-77 of human PDE10A2 (Accession No. AF127480, Genbank Identifier 4894716), containing a Kozak consensus sequence, and a reverse primer corresponding to nucleotides 2406-2413 of human PDE10A2 (Accession No. AF127480, Genbank Identifier 4894716). Amplification with Easy-A polymerase (Stratagene, La Jolla, Calif.) was 95° C. for 2 minutes followed by thirty three cycles of 95° C. for 40 seconds, 55° C. for 30 seconds, and 72° C. for 2 minutes 48 seconds. Final extension was 72° C. for 7 minutes. The PCR product was TA cloned into pcDNA3.2-TOPO (Invitrogen, Carlsbad, Calif.) according to standard protocol. AD293 cells with 70-80% confluency were transiently transfected with human PDE10A2/pcDNA3.2-TOPO using Lipofectamine 2000 according to manufacturer specifications (Invitrogen, Carlsbad, Calif.). Cells were harvested 48 hours post-transfection and lysed by sonication (setting 3, 10×5 sec pulses) in a buffer containing 20 mM HEPES, 1 mM EDTA and protease inhibitor cocktail (Roche). Lysate was collected by centrifugation at 75,000×g for 20 minutes. Supernatant containing the cytoplasmic fraction was used for evaluation of PDE10A2 activity. The fluorescence polarization assay for cyclic nucleotide phosphodiesterases was performed using an IMAP® FP kit supplied by Molecular Devices, Sunnyvale, Calif. (product # R8139). IMAP® technology has been applied previously to phosphodiesterase assays (Huang, W., et al., J. Biomol Screen, 2002, 7: 215). Assays were performed at room temperature in 384-well microtiter plates with an incubation volume of 20.2 μL. Solutions of test compounds were prepared in DMSO and serially diluted with DMSO to yield 8 μL of each of 10 solutions differing by 3-fold in concentration, at 32 serial dilutions per plate. 100% inhibition is determined using a known PDE10 inhibitor, which can be any compound that is present at 5,000 times its Ki value in the assay described as follows, such as papaverine (see Siuciak, et al. Neuropharmacology (2006) 51:386-396; Becker, et al. Behav Brain Res (2008) 186(2):155-60; Threlfell, et al., J Pharmacol Exp Ther (2009) 328(3):785-795), 2-{4-[pyridin-4-yl-1-(2,2,2-trifluoroethyl)-1H-pyrazol-3-yl]phenoxymethyl}quinoline succinic acid or 2-[4-(1-methyl-4-pyridin-4-yl-1H-pyrazol-3-yl)-phenoxymethyl]quinoline succinic acid (see Schmidt, et al. J Pharmacol Exp Ther (2008) 325:681-690; Threlfell, et al., J Pharmacol Exp Ther (2009) 328(3): 785-795). 0% of inhibition is determined by using DMSO (1% final concentrations).
A Labcyte Echo 555 (Labcyte, Sunnyvale, Calif.) is used to dispense 200 nL from each well of the titration plate to the 384 well assay plate. A solution of enzyme (1/1600 dilution from aliquots; sufficient to produce 20% substrate conversion) and a separate solution of FAM-labeled cAMP PDE from Molecular Devices (product # R7506), at a final concentration of 50 nM are made in the assay buffer (10 mM Tris HCl, pH 7.2, 10 mM MgCl2, 0.05% NaN3 0.01% Tween-20, and 1 mM DTT). The enzyme and the substrate are then added to the assay plates in two consecutive additions of 10 μL, and then shaken to mix. The reaction is allowed to proceed at room temperature for 30 minutes. A binding solution is then made from the kit components, comprised of 80% Solution A, 20% Solution B and binding reagent at a volume of 1/600 the total binding solution.

Chain of human PDE10A2 (Q9Y233 267-1055): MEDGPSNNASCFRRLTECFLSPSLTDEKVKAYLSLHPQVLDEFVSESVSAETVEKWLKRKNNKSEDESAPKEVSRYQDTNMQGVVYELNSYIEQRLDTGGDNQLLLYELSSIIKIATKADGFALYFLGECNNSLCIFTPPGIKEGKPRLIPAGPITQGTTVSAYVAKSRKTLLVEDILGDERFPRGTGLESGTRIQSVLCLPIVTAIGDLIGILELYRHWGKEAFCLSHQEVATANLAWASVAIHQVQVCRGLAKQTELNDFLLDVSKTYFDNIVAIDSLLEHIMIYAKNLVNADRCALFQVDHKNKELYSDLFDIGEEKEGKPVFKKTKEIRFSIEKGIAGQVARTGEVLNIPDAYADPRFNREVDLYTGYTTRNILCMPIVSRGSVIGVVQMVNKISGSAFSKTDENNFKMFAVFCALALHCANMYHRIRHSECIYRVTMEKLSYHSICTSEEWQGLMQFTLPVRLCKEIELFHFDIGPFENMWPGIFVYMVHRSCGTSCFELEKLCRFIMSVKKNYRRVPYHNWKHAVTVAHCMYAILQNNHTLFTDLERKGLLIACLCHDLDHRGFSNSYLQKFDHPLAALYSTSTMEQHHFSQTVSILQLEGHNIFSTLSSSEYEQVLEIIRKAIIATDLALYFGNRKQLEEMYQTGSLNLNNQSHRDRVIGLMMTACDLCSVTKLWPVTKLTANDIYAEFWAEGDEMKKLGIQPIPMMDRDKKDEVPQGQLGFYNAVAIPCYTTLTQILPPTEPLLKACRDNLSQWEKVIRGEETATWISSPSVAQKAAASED

By Ki is commonly meant a measure of affinity in units of concentration, obtained from inhibition or displacement. Regarding `Cc1nc(NCc2cnn(C)c2)cc(OC[C@H]2C[C@@H]2c2ccc(C(F)F)cn2)n1` (stereo in doubt) [Compound 2-17, 6-({2-[5-(difluoromethyl)pyridin-2-yl]cyclopropyl}methoxy)-2-methyl-N-[(1-methyl-1H-pyrazol-4-yl)methyl]pyrimidin-4-amine], the Ki worked out at 3.5 nM. Next, `Cc1nnc(CNc2cc(OC[C@H]3C[C@@H]3c3ccccn3)nc(CF)n2)s1` [Compound 3-8, S,S-2-(fluoromethyl)-N-[(5-methyl-1,3,4-thiadiazol-2-yl)methyl]-6-[(2-pyridin-2-ylcyclopropyl)methoxy] pyrimidin-4-amine]: 1.1 nM. As for `Cc1nc(NCc2nnc(C)s2)cc(OC[C@H]2C[C@@H]2c2ccc(C3CC3)cn2)n1` (stereo in doubt) [Compound 9-2, 6-{[2-(5-cyclopropylpyridin-2-yl)cyclopropyl]methoxy}-2-methyl-N-[(5-methyl-1,3,4-thiadiazol-2-yl)methyl]pyrimidin-4-amine], the inhibitory constant (Ki) was determined as 0.08 nM. With `COc1ccc([C@H]2C[C@@H]2COc2cc(NCc3nnc(C)s3)nc(N)n2)nc1` [Compound 2-53, S,S-6-{[(1S,2S)-2-(5-methoxypyridin-2-yl)cyclopropyl]methoxy}-N-4-[(5-methyl-1,3,4-thiadiazol-2-yl)methyl]pyrimidine-2,4-diamine], the inhibitory constant (Ki) was 0.05 nM.

In the case of `Cc1cc(CNc2cc(OC[C@H]3C[C@@H]3c3ccc4ccccc4n3)nc(C)n2)n(C)n1` [Compound 2-4, S,S-N-[(1,3-dimethyl-1H-pyrazol-5-yl)methyl]-2-methyl-6-[(2-quinolin-2-ylcyclopropyl)methoxy] pyrimidin-4-amine], the Ki was determined as 0.6 nM. For `Cc1nc(NCc2cc(C)on2)cc(OCC2CC2c2ccccn2)n1` (stereo not shown) [Compound 12-2, 2-methyl-N-((5-methylisoxazol-3-yl)methyl)-6-((2-(pyridin-2-yl)cyclopropyl)methoxy)-pyrimidin-4-amine], the inhibition constant Ki amounted to 1.1 nM. Next, `COc1cccnc1[C@H]1C[C@@H]1COc1cc(NCc2cnn(C)c2)nc(C)n1` (stereo in doubt) [Compound 2-14, 6-{[2-(3-methoxypyridin-2-yl)cyclopropyl]methoxy}-2-methyl-N-[(1-methyl-1H-pyrazol-4-yl)methyl]pyrimidin-4-amine]: 3.6 nM. Turning to `Cc1nc(NCc2cnn(C)c2)cc(OCC2CC2c2ccccn2)n1` (stereo not shown) [Compound 1-2, 2-methyl-N-[(1-methyl-1H-pyrazol-4-yl)methyl]-6-[(2-pyridin-2-ylcyclopropyl)methoxy]pyrimidin-4-amine], the Ki worked out at 0.03 nM. Next, `Cc1nc(NCc2nnc(C)s2)cc(OC[C@H]2C[C@@H]2c2ccc(-c3cccnc3)cn2)n1` (stereo in doubt) [Compound 8-8, 6-{[2-(3,3′-bipyridin-6-yl)cyclopropyl]methoxy}-2-methyl-N-[(5-methyl-1,3,4-thiadiazol-2-yl)methyl] pyrimidin-4-amine]: 1 nM; `Cc1ccc([C@H]2C[C@@H]2COc2nc(C)nc(NCc3nnc(C)s3)c2Cl)nc1` [Compound 2-58, S,S-5-chloro-2-methyl-6-{[(1S,2S)-2-(5-methylpyridin-2-yl)cyclopropyl]methoxy}-N-[(5-methyl-1,3,4-thiadiazol-2-yl)methyl]pyrimidin-4-amine]: 3.9 nM; `Cc1nc(NCc2nnc(C)s2)cc(OC[C@H]2C[C@@H]2c2ccc3ncccc3n2)n1` [Compound 2-27, S,S-2-methyl-N-[(5-methyl-1,3,4-thiadiazol-2-yl)methyl]-6-{[2-(1,5-naphthyridin-2-yl)cyclopropyl]methoxy} pyrimidin-4-amine]: 0.02 nM. Next, `Cc1nnc(CNc2nc(N)nc(OC[C@H]3C[C@@H]3c3ccc4c(n3)CCC4)c2F)s1` [Compound 3-25, S,S-6-(((1S,2S)-2-(6,7-dihydro-5H-cyclopenta[b]pyridin-2-yl)cyclopropyl)methoxy)-5-fluoro-N4-((5-methyl-1,3,4-thiadiazol-2-yl)methyl)pyrimidine-2,4-diamine]: 0.09 nM; `Cc1nc(C)c(CNc2cc(OC[C@H]3C[C@@H]3c3ccccn3)nc(C3CC3)n2)s1` [Compound 3-11, S,S-2-cyclopropyl-N-[(2,4-dimethyl-1,3-thiazol-5-yl)methyl]-6-[(2-pyridin-2-ylcyclopropyl)methoxy] pyrimidin-4-amine]: 1.6 nM; `Cc1nnc(CNc2nc(N)nc(OC[C@H]3C[C@@H]3c3ccc(Cl)cn3)c2F)s1` [Compound 3-19, 6-{[(1S,2S)-2-(5-chloropyridin-2-yl)cyclopropyl]methoxy}-5-fluoro-N-4-[(5-methyl-1,3,4-thiadiazol-2-yl)methyl]pyrimidine-2,4-diamine]: 3.6 nM. Consider `Cc1nc(NCc2sc(C)nc2C)c(C)c(OC[C@H]2C[C@@H]2c2ccccn2)n1` [Compound 2-47, S,S-N-[(2,4-dimethyl-1,3-thiazol-5-yl)methyl]-2,5-dimethyl-6-[(2-pyridin-2-ylcyclopropyl)methoxy] pyrimidin-4-amine], for which the inhibitory constant (Ki) came out at 41.7 nM. Next, `Cc1nc(NCc2nnc(C3CC3)s2)cc(OC[C@H]2C[C@@H]2c2ccccn2)n1` [Compound 2-37, S,S-N-[(5-cyclopropyl-1,3,4-thiadiazol-2-yl)methyl]-2-methyl-6-[(2-pyridin-2-ylcyclopropyl)methoxy] pyrimidin-4-amine]: 3.8 nM; `Cc1ccc([C@H]2C[C@@H]2COc2nc(N)nc(NCc3nnc(C)s3)c2C#N)nc1` [Compound 16-4, 2-amino-4-{[(1S,2S)-2-(5-methylpyridin-2-yl)cyclopropyl]methoxy}-6-{[(5-methyl-1,3,4-thiadiazol-2-yl)methyl]amino}pyrimidine-5-carbonitrile]: 1.6 nM; `Cc1nc(NCc2ccncc2C)cc(OCC2CC2c2ccccn2)n1` (stereo not shown) [Compound 14-3, 2-methyl-N-((3-methylpyridin-4-yl)methyl)-6-((2-(pyridin-2-yl)cyclopropyl)methoxy)pyrimidin-4-amine]: 5.3 nM. As for `COc1ccc([C@H]2C[C@@H]2COc2nc(N)nc(NCc3nnc(C)s3)c2F)nc1` [Compound 3-13, 5-fluoro-6-{[(1S,2S)-2-(5-methoxypyridin-2-yl)cyclopropyl]methoxy}-N-4-[(5-methyl-1,3,4-thiadiazol-2-yl)methyl]pyrimidine-2,4-diamine], the Ki turned out to be 0.5 nM.
